Results from patent publication US20050214894A1, “High throughput assay” (priority 2004, published 2005).

How the values were obtained:
FIH = molecular target: T1, FIH (Homo sapiens, UniProt Q9NWT6); test: FIH activity assay: 2-OG consumption detected by OPD derivatisation and fluorescence; type: biochemical; details: for effect on 2-OG consumption by FIH: inhibitor 1 mM, in the presence of prime substrate and 2-OG, FIG. 7
T1 construct: FIH and GST-tagged HIF-1α 786-826 were prepared as described previously; made in house
Method: The assay of FIH activity was carried out by mixing 1 mM DTT, 0.6 mg/ml catalase, 2-OG, substrate and 50 mM Tris/HCl pH 7.5 to a final volume of 88 μl warming to 37° C. for 5 minutes in a water bath. Simultaneously, the enzyme and iron (prepared as 500 mM stock in 20 mM HCl, and diluted with water) were mixed at room temperature for 3 minutes. Reaction was initiated by addition of 12 μl of enzyme/iron mix to the substrate/cofactor mix. The reaction was stopped by addition of 200 μl 0.5M HCl; derivatisation was then achieved by the addition of 100 μl 10 mg/ml OPD in 0.5M HCl, and heating for 10 minutes at 95° C. in a heating block.

PHD2 = molecular target: T2, PHD2 (Homo sapiens, UniProt Q9GZT9); test: PHD2 activity assay: 2-OG consumption detected by OPD derivatisation and fluorescence; type: biochemical; details: inhibitor 1 mM; Tris and HEPES buffers; FIG. 9
T2 construct: a form of the enzyme that has had the first 180 amino acids (including those containing a MYND finger motif) removed; made in house; host or cells: Escherichia coli BL21(DE3)
Source text: The PHD2 used was a form of the enzyme that has had the first 180 amino acids (including those containing a MYND finger motif) removed. Thus the enzyme, after removal of the affinity tag, has a N-terminus of […]; we have found this form of PHD2 to be preferred in the in vitro assays. The enzyme was expressed from the pET28a(+) vector (Novagen), with the gene cloned between NheI and BamHI restriction sites. Growth and induction were using standard techniques, in that the pET28a(+) vector was transformed into BL21(DE3) Escherichia coli cells, and grown in 2TY medium at 37° C. until the absorbance of the solution of 600 nm was 0.8. IPTG was added to a final concentration of 0.5 mM and growth was continued for three hours. Affinity purification using Novagen His-Bind resin was as per the manufacturers instructions.
The assay was carried out as for the FIH, but the buffer used was 50 mM HEPES pH7.0.

T1 sequence (Q9NWT6 whole entry): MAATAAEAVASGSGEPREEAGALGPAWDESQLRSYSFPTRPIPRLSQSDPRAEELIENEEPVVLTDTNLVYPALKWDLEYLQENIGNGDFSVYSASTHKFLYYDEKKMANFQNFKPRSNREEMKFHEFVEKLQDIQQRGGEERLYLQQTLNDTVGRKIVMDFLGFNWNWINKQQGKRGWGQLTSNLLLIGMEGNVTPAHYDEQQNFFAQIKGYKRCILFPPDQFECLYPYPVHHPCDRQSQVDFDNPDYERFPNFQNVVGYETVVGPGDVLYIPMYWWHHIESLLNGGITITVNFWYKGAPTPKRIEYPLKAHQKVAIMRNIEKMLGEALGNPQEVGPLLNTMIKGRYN
T2 sequence (Q9GZT9 with tags, fused parts or gaps): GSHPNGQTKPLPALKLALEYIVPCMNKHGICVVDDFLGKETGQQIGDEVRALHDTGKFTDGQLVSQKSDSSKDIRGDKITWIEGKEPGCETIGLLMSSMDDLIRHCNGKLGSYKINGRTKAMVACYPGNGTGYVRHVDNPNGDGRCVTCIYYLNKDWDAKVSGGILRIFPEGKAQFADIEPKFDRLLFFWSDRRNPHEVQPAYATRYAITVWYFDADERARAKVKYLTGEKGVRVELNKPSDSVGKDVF

Row | Structure (SMILES) | effect on 2-OG consumption by FIH (FIH) | IC50 (FIH) [µM] | inhibition of PHD2 (PHD2)
1 | O=C(O)c1c[nH]c2c(ccc3cccnc32)c1=O [FG0041] | eliminated the 2-OG consumption by FIH |  | 
2 | O=C(O)CNC(=O)C(=O)O [N-oxalylglycine] | eliminated the 2-OG consumption by FIH | 40 | 
3 | O=C(O)C(=O)N[C@H](Cc1ccccc1)C(=O)O [NOFD, N-oxalyl-D-phenylalanine] |  |  | little, if any, inhibition of PHD2
